Read-outs that look alike come from different tables or passages of the source.
Assays:
[1] = system: HIV-1 double mutant 103N + 181C; test: MT-4 cell-based antiviral assay, SDM mutant
Protocol: (§1) Compound E-TMC278 was tested in a cell-based assay, using natural host cells of HIV. MT-4 cells (a cell line of human T cells) were infected with HIV-1 (wild type or mutants) and exposed to different concentrations of antiviral compound in the presence of 10% fetal calf serum. Cytotoxicity was determined in parallel with the antiviral activity so that the selectivity of the antiviral effect could be assessed. Active compounds have to penetrate the cell membrane in order to interfere with replication steps inside the cell.
(§2) After four days of incubation at 37° C., the viability of the HIV and mock-infected cells was assessed by an automated tetrazolium-based calorimetric assay. This method enabled the calculation of both the 50% inhibitory concentration for inhibition of viral cytopathicity (IC50), the IC90, and the 50% cytotoxic concentration (CC50). The ratio CC50/IC50, also called the selectivity index, is an indication of the specificity of the antiviral effect. Tested HIV strains included: Wild type (wt) HIV-1; a panel of single and double mutants, obtained by site-directed mutagenesis (SDM), and a panel of clinical isolates, selected for resistance against NNRTIs.
(§3) A limited panel of HIV-1 mutants was constructed using site-directed mutagenesis (SDM) and homologous recombination techniques. […] Nevirapine (NVP) and efavirenz (EFV) were included as controls.

HIV-1 mutant 108I = test: MT-4 cell-based antiviral assay, SDM mutant; settings: Human immunodeficiency virus 1, MT4
Protocol: as §1, §2, §3

HIV-1 mutant 188H = test: MT-4 cell-based antiviral assay, SDM mutant; settings: Human immunodeficiency virus 1, MT4
Protocol: as §1, §2, §3

HIV-1 mutant 225H = test: MT-4 cell-based antiviral assay, SDM mutant; settings: Human immunodeficiency virus 1, MT4
Protocol: as §1, §2, §3

HIV-1 single mutant 103N = test: Development of resistance in vitro, starting from single mutant; format: cell-based; settings: starting from 103N
From the text: (§4) Emerging virus was collected for pheno- and genotyping. Cultures without evidence of virus replication were further sub-cultivated in the presence of the same concentration of inhibitor for a total duration of 30 days (10 passages).

[2] = system: HIV-1 single mutant Y181C; test: as above; format: cell-based
From the text: as §4

[3] = Cardiovascular and pulmonary safety in vivo; settings: plasma levels covering and exceeding the targeted plasma levels in man

Q: Which results are given for `Cc1cc(/C=C/C#N)cc(C)c1Nc1ccnc(Nc2ccc(C#N)cc2)n1` [E-TMC278, (E)-4-[[4-[[4-(2-cyanoethenyl)-2,6-dimethylphenyl]-amino]-2-pyrimidinyl]-amino]-benzonitrile]?
A: IC50 ([1]; Human immunodeficiency virus 1, MT4): 0.8 nM; IC50 ([1]; Human immunodeficiency virus 1, MT4, read-out: IC50 value): 1 nM; IC50 (HIV-1 mutant 108I): 0.3 nM; IC50 (HIV-1 mutant 188H): 0.2 nM; IC50 (HIV-1 mutant 225H): 0.3 nM; virus breakthrough (HIV-1 single mutant 103N; at 10 nM): did occur; virus breakthrough (HIV-1 single mutant 103N; at 40 and 200 nM): did not occur; virus breakthrough ([2]; at 10 nM): did occur; virus breakthrough ([2]; at 40 and 200 nM): did not occur; effect on cardiovascular and pulmonary parameters in vivo [3]: little or no effect

Reference: patent publication US8841310B2, “Combinations of a pyrimidine containing NNRTI with RT inhibitors” (Janssen R & D Ireland, priority 2003, dated 2014)
